Results on four molecules are retold here after ChEMBL document CHEMBL5126613, “Novel CA(1-7)M(2-9) Analogs: Synthesis, Characterization, and Antibacterial Evaluation” (ACS Med Chem Lett, 2022).

For one series, the system named is Pseudomonas aeruginosa. The series is described as follows: Antibacterial activity against Pseudomonas aeruginosa ATCC 27853 assessed as reduction in bacterial growth measured for 18 to 20 hrs by microbroth dilution method. The format is functional. Conditions: time 18-20 hrs.
The test system of a further series is Escherichia coli. The series is described as follows: Antibacterial activity against Escherichia coli ATCC 25922 assessed as reduction in bacterial growth measured for 18 to 20 hrs by microbroth dilution method. The format is functional. Conditions: time 18-20 hrs. A general note: In broth dilution the organism is exposed to a series of concentrations in liquid medium.

The test system of another series is Staphylococcus aureus. The series is described as follows: Antibacterial activity against Staphylococcus aureus ATCC 29213 assessed as reduction in bacterial growth measured for 18 to 20 hrs by microbroth dilution method. Conditions: time 18-20 hrs. The format is functional.
A further series deals with Bacillus subtilis. The series is described as follows: Antibacterial activity against Bacillus subtilis ATCC 6051 assessed as reduction in bacterial growth measured for 18 to 20 hrs by microbroth dilution method. The note with it: time 18-20 hrs. The format is functional.
In series [1] the target is T1, Trypsin (Homo sapiens, UniProt P07477+P07478+P35030). The series is described as follows: Stability of compound assessed as trypsin (unknown origin) mediated compound degradation by measuring H-WO3LFO6-OH level measured at 15 mins by LCMS analysis. It counts as protein assay.
The target of series [2] is T1, Trypsin. The series is described as follows: Stability of compound assessed as trypsin (unknown origin) mediated compound degradation by measuring H-O1WO3LFO6O7IGAVLO13-OH level measured at 60 mins by LCMS analysis. The format is protein assay.
Series [3] has as its target T1, Trypsin. The series is described as follows: Stability of compound assessed as trypsin (unknown origin) mediated compound degradation by measuring H-WO3LFO6-OH level measured at 120 mins by LCMS analysis. It counts as protein assay.
Series [4] addresses T1, Trypsin. The series is described as follows: Stability of compound assessed as trypsin (unknown origin) mediated compound degradation by measuring H-O1WO3LFO6O7IGAVLO13VL-NH2 level measured at 15 mins by LCMS analysis. The format is protein assay.
Series [5] concerns the target T1, Trypsin. The series is described as follows: Stability of compound assessed as trypsin (unknown origin) mediated compound degradation by measuring H-O1WO3LFO6-OH level measured at 15 mins by LCMS analysis. The format is protein assay.
The target of series [6] is T1, Trypsin. The series is described as follows: Stability of compound assessed as trypsin (unknown origin) mediated compound degradation by measuring H-O1WO3LFO6O7-OH level measured at 15 mins by LCMS analysis. The format is protein assay.
Series [7] addresses T1, Trypsin. The series is described as follows: Stability of compound assessed as trypsin (unknown origin) mediated compound degradation by measuring H-O7IGAVLO13VL-NH2 level measured at 60 mins by LCMS analysis. It counts as protein assay.
Series [8] deals with T1, Trypsin. The series is described as follows: Stability of compound assessed as trypsin (unknown origin) mediated compound degradation by measuring H-O7IGAVLO13VL-NH2 level measured at 270 mins by LCMS analysis. The format is protein assay.
The target in series [9] is T1, Trypsin. The series is described as follows: Stability of compound assessed as trypsin (unknown origin) mediated compound degradation by measuring H-O1WO3LFO6-OH level measured at 270 mins by LCMS analysis. The format is protein assay.
For series [10], the target named is T1, Trypsin. The series is described as follows: Stability of compound assessed as trypsin (unknown origin) mediated compound degradation by measuring H-O1WO3LFO6O7IGAVLO13-OH level measured at 270 mins by LCMS analysis. It counts as protein assay.
The target of series [11] is T1, Trypsin. The series is described as follows: Stability of compound assessed as trypsin (unknown origin) mediated compound degradation by measuring H-WO3LFO6-OH level measured at 60 mins by LCMS analysis. It counts as protein assay.
The target in series [12] is T1, Trypsin. The series is described as follows: Stability of compound assessed as trypsin (unknown origin) mediated compound degradation by measuring H-O1WO3LFO6O7-OH level measured at 60 mins by LCMS analysis. The format is protein assay.
The target in series [13] is T1, Trypsin. The series is described as follows: Stability of compound assessed as trypsin (unknown origin) mediated compound degradation by measuring H-O1WO3LFO6O7IGAVLO13-OH level measured at 120 mins by LCMS analysis. It counts as protein assay.
The target in series [14] is T1, Trypsin. The series is described as follows: Stability of compound assessed as trypsin (unknown origin) mediated compound degradation by measuring H-O1WO3LFO6O7-OH level measured at 120 mins by LCMS analysis. The format is protein assay.
The target in series [15] is T1, Trypsin. The series is described as follows: Stability of compound assessed as trypsin (unknown origin) mediated compound degradation by measuring H-O1WO3LFO6O7IGAVLO13VL-NH2 level measured at 60 mins by LCMS analysis. The format is protein assay.
The target of series [16] is T1, Trypsin. The series is described as follows: Stability of compound assessed as trypsin (unknown origin) mediated compound degradation by measuring H-O1WO3LFO6O7IGAVLO13VL-NH2 level measured at 270 mins by LCMS analysis. The format is protein assay.
Series [17] concerns the target T1, Trypsin. The series is described as follows: Stability of compound assessed as trypsin (unknown origin) mediated compound degradation by measuring H-O1WO3LFO6-OH level measured at 60 mins by LCMS analysis. It counts as protein assay.
Series [18] addresses T1, Trypsin. The series is described as follows: Stability of compound assessed as trypsin (unknown origin) mediated compound degradation by measuring H-O7IGAVLO13VL-NH2 level measured at 120 mins by LCMS analysis. It counts as protein assay.
Series [19] deals with T1, Trypsin. The series is described as follows: Stability of compound assessed as trypsin (unknown origin) mediated compound degradation by measuring H-O1WO3LFO6O7IGAVLO13VL-NH2 level measured at 120 mins by LCMS analysis. The format is protein assay.
Series [20] has as its target T1, Trypsin. The series is described as follows: Stability of compound assessed as trypsin (unknown origin) mediated compound degradation by measuring H-O1WO3LFO6O7-OH level measured at 270 mins by LCMS analysis. The format is protein assay.
Series [21] concerns the target T1, Trypsin. The series is described as follows: Stability of compound assessed as trypsin (unknown origin) mediated compound degradation by measuring H-O1WO3LFO6-OH level measured at 120 mins by LCMS analysis. The format is protein assay.
For series [22], the target named is T1, Trypsin. The series is described as follows: Stability of compound assessed as trypsin (unknown origin) mediated compound degradation by measuring H-WO3LFO6-OH level measured at 270 mins by LCMS analysis. It counts as protein assay.
Series [23] can be described thus: Selectivity index, ratio of HC50 for hemolytic activity in sheep RBC assessed as 50% hemolysis incubated for 30 mins by microplate reader method to MIC for antibacterial activity against Bacillus subtilis ATCC 6051 assessed as reduction in bacterial growth measured for 18 to 20 hrs by microbroth dilution method. The format is toxicity. Conditions: sheep red blood cells (erythrocytes), read-out: Selectivity Index.

Series [24] in a line: Selectivity index, ratio of HC50 for hemolytic activity in sheep RBC assessed as 50% hemolysis incubated for 30 mins by microplate reader method to MIC for antibacterial activity against Pseudomonas aeruginosa ATCC 27853 assessed as reduction in bacterial growth measured for 18 to 20 hrs by microbroth dilution method. Conditions: sheep red blood cells (erythrocytes), read-out: Selectivity Index. It counts as toxicity.

Series [25] is described as follows: Hemolytic activity in sheep RBC assessed as hemolysis incubated for 30 mins by microplate reader method. Conditions: sheep red blood cells (erythrocytes), read-out: Activity. It counts as toxicity, cell-based, Ovis aries, Erythrocyte.
Series [26] concerns the target T1, Trypsin. The series is described as follows: Stability of compound assessed as trypsin (unknown origin)-mediated compound degradation measured at 5 mins by LCMS analysis. The format is ADME, protein assay.
The nature of series [27]: Selectivity index, ratio of HC50 for hemolytic activity in sheep RBC assessed as 50% hemolysis incubated for 30 mins by microplate reader method to MIC for antibacterial activity against Escherichia coli ATCC 25922 assessed as reduction in bacterial growth measured for 18 to 20 hrs by microbroth dilution method. It counts as toxicity. Conditions: sheep red blood cells (erythrocytes), read-out: Selectivity Index.

Series [28] is described as follows: Hemolytic activity in sheep RBC assessed as 50% hemolysis incubated for 30 mins by microplate reader method. The format is toxicity, cell-based, Ovis aries, Erythrocyte. The note with it: sheep red blood cells (erythrocytes).
Series [29] can be described thus: Selectivity index, ratio of HC50 for hemolytic activity in sheep RBC assessed as 50% hemolysis incubated for 30 mins by microplate reader method to MIC for antibacterial activity against Staphylococcus aureus ATCC 29213 assessed as reduction in bacterial growth measured for 18 to 20 hrs by microbroth dilution method. It counts as toxicity. The note with it: sheep red blood cells (erythrocytes), read-out: Selectivity Index.

In brackets after ≈: the same amount, converted by molar mass. Bridge positions count the residues as written; N and C are the ends. Peptide text beside a SMILES is read from it. Where only a bound is given, the exact number is not on record here.

The term MIC denotes the least concentration at which growth counts as inhibited. Regarding `CC[C@H](C)[C@H](NC(=O)[C@H](CCCN)NC(=O)[C@H](CCCN)NC(=O)[C@H](Cc1ccccc1)NC(=O)[C@H](CC(C)C)NC(=O)[C@H](CCCN)NC(=O)[C@H](Cc1c[nH]c2ccccc12)NC(=O)[C@@H](N)CCCN)C(=O)NCC(=O)N[C@@H](C)C(=O)N[C@H](C(=O)N[C@@H](CC(C)C)C(=O)N[C@@H](CCCN)C(=O)N[C@H](C(=O)N[C@@H](CC(C)C)C(N)=O)C(C)C)C(C)C`, the MIC in the series with Pseudomonas aeruginosa was 8 µg/mL (≈ 4.71 µM); in the series with Escherichia coli it was 4 µg/mL (≈ 2.35 µM); in the series on Staphylococcus aureus it was 8 µg/mL (≈ 4.71 µM); with Bacillus subtilis, 32 µg/mL (≈ 18.8 µM).
Take `CC[C@H](C)[C@H](NC(=O)[C@H](CCCN)NC(=O)[C@H](CCCN)NC(=O)[C@H](Cc1ccccc1)NC(=O)[C@H](CC(C)C)NC(=O)[C@H](CCCN)NC(=O)[C@H](Cc1c[nH]c2ccccc12)NC(=O)[C@@H](N)CCCN)C(=O)NCC(=O)N[C@H](C)C(=O)N[C@H](C(=O)N[C@@H](CC(C)C)C(=O)N[C@@H](CCCN)C(=O)N[C@H](C(=O)N[C@@H](CC(C)C)C(N)=O)C(C)C)C(C)C`: the Drug degradation was determined as 0.6% on Trypsin [1]; 0.5% on Trypsin [2]; 5.6% on Trypsin [3]; 98.1% on Trypsin [4]; 0.9% on Trypsin [5]; 0.4% at Trypsin [6]. Besides, the Drug degradation at Trypsin [7] is 0.9%; at Trypsin [8], 2.5%; on Trypsin [9], 17.3%; at Trypsin [10] it was 2.2%; at Trypsin [11], 2.8%; on Trypsin [12] it was 2.1%. The Drug degradation at Trypsin [13] is 1%; on Trypsin [14], 4%; at Trypsin [15] it was 89.4%; at Trypsin [16], 58.3%; at Trypsin [17], 4.3%; at Trypsin [18], 1.6%. For the same molecule, the Drug degradation was 79.4% at Trypsin [19], 7.6% on Trypsin [20], 8.4% on Trypsin [21] and 12.1% at Trypsin [22].
Usually HC50 stands for the concentration that lyses half of the red blood cells. Take `CC[C@H](C)[C@@H]1NC(=O)[C@H](CCCCN)NC(=O)[C@H](CCCCN)NC(=O)[C@H](Cc2ccccc2)NC(=O)[C@H](CC(C)C)NC(=O)[C@H](CCCCN)NC(=O)[C@H](Cc2c[nH]c3ccccc23)NC(=O)[C@H](CCCCN)NC(=O)[C@@H](N)CSSC[C@@H](C(N)=O)NC(=O)[C@H](CC(C)C)NC(=O)[C@H](C(C)C)NC(=O)[C@H](CCCCN)NC(=O)[C@H](CC(C)C)NC(=O)[C@H](C(C)C)NC(=O)[C@H](C)NC(=O)CNC1=O` (H-CKWKLFKKIGAVLKVLC-NH2; disulfide 1-17): the selectivity ratio at 30 min in [23] was above 125; in [24] it was above 63; in [27], above 500; in series [29], above 250. For the same molecule, the MIC turned out to be 16 µg/mL (≈ 8.1 µM) with Pseudomonas aeruginosa, 2 µg/mL (≈ 1.01 µM) with Escherichia coli, 4 µg/mL (≈ 2.03 µM) with Staphylococcus aureus and 8 µg/mL (≈ 4.05 µM) in the series on Bacillus subtilis. In addition, the hemolysis at 0.5 h in series [25] turned out to be 10%. In addition, the Stability entry at Trypsin [26] is “Stable”. Also, the HC50 at 0.5 h in series [28] was above 1000 µg/mL.
On to H-KWKLFKKIGAVLRVL-NH2, for which the selectivity ratio at 30 min worked out at 9 in series [23], 35 in [24], 70 in series [27] and 70 in [29]. For the same molecule, the MIC in the series with Pseudomonas aeruginosa stood at 8 µg/mL; in the series with Escherichia coli, 4 µg/mL; in the series with Staphylococcus aureus, 4 µg/mL; in the series with Bacillus subtilis, 32 µg/mL. Further, the hemolysis at 0.5 h in series [25] is 10%. Moreover, the concentration for 50% haemolysis (HC50) at 0.5 h in series [28] was 280 µg/mL.
